Laboratory results reported in ChEMBL document CHEMBL3885861, “Open TG-GATES”.

Species: Rattus norvegicus
Experiment: Open TG-GATES - Regimen: Single
Type: toxicity, organism-based, Sprague-Dawley
Design: regimen Single, gender Male, age 6 weeks
Settings: in vivo, po, 3 mg/kg, route gavage, dose level Low; for APTT / Bas / Eos / Fbg / Hb / Ht / Lym / MCH / MCHC / MCV / Mono / Neu / PT / Plat / RBC / Ret / WBC: tissue Blood; for KIDNEY_L / KIDNEY_R / KIDNEY_TOTAL: tissue Kidney; for LIVER: tissue Liver; for A/G / ALP / ALT / AST / BUN / CRE / Ca / Cl / DBIL / GLC / IP / K / LDH / Na / PL / RALB / TBIL / TC / TG / TP / gamma-GTP: tissue Plasma

With `Nc1c2c(nc3ccccc13)CCCC2` [TACRINE] the TERMINAL_BW (3 h) was 208.2 g, the APTT (3 h) was 21.3 s and the Bas (3 h) was 0%. The Eos (3 h) was 0.4%, the Fbg (3 h) was 283.8 mg/dL and the Hb (3 h) was 13.4 g/dL. The Ht (3 h) was 39%, the Lym (3 h) was 77% and the MCH (3 h) was 21.5 pg. For the same molecule, the MCHC (3 h) was 34.4%, the MCV (3 h) was 62.5 fL and the Mono (3 h) was 2.2%. It also gave a Neu (3 h) of 19.4%, a PT (3 h) of 16.1 s and a Plat (3 h) of 120.6 x10_4/uL. The RBC (3 h) was 623.8 x10_4/ul, the Ret (3 h) was 8.2% and the WBC (3 h) was 90.3 x10_2/uL. The KIDNEY_L (3 h) was 0.9 g, the KIDNEY_R (3 h) was 0.9 g and the KIDNEY_TOTAL (3 h) was 1.9 g. It also gave an LIVER (3 h) of 9.4 g, an A/G (3 h) of 1.3 and an ALP (3 h) of 1562.6 IU/L. For the same molecule, the ALT (3 h) was 45.6 IU/L, the AST (3 h) was 79.6 IU/L and the BUN (3 h) was 13.4 mg/dL. For the same molecule, the CRE (3 h) was 0.2 mg/dL, the Ca (3 h) was 10.7 mg/dL and the Cl (3 h) was 107 meq/L. It also gave a DBIL (3 h) of 0.002 mg/dL, a GLC (3 h) of 184.2 mg/dL and an IP (3 h) of 8 mg/dL. It also gave a K (3 h) of 4 meq/L, an LDH (3 h) of 251.6 IU/L and a Na (3 h) of 142.6 meq/L. It also gave a PL (3 h) of 139.2 mg/dL, an RALB (3 h) of 3 g/dL and a TBIL (3 h) of 0.024 mg/dL. For the same molecule, the TC (3 h) was 75 mg/dL, the TG (3 h) was 64 mg/dL and the TP (3 h) was 5.4 g/dL. It also gave a gamma-GTP (3 h) of 1 IU/L, a TERMINAL_BW (6 h) of 200.8 g and an APTT (6 h) of 20.8 s. The Bas (6 h) was 0%, the Eos (6 h) was 0.8% and the Fbg (6 h) was 312.8 mg/dL. It also gave a Hb (6 h) of 13.6 g/dL, a Ht (6 h) of 39.2% and a Lym (6 h) of 78.8%. For the same molecule, the MCH (6 h) was 21.2 pg, the MCHC (6 h) was 34.6% and the MCV (6 h) was 61.2 fL. It also gave a Mono (6 h) of 2.4%, a Neu (6 h) of 17.2% and a PT (6 h) of 15.6 s. For the same molecule, the Plat (6 h) was 125.6 x10_4/uL, the RBC (6 h) was 641 x10_4/ul and the Ret (6 h) was 7.7%. It also gave a WBC (6 h) of 102.1 x10_2/uL, a KIDNEY_L (6 h) of 0.9 g and a KIDNEY_R (6 h) of 0.9 g. The KIDNEY_TOTAL (6 h) was 1.8 g, the LIVER (6 h) was 8.7 g and the A/G (6 h) was 1.2. For the same molecule, the ALP (6 h) was 1243.4 IU/L, the ALT (6 h) was 34.8 IU/L and the AST (6 h) was 67.2 IU/L. For the same molecule, the BUN (6 h) was 11.4 mg/dL, the CRE (6 h) was 0.2 mg/dL and the Ca (6 h) was 10.6 mg/dL. It also gave a Cl (6 h) of 106.8 meq/L, a DBIL (6 h) of 0.002 mg/dL and a GLC (6 h) of 175.6 mg/dL. For the same molecule, the IP (6 h) was 9 mg/dL, the K (6 h) was 4.4 meq/L and the LDH (6 h) was 200 IU/L. For the same molecule, the Na (6 h) was 142 meq/L, the PL (6 h) was 148 mg/dL and the RALB (6 h) was 3.1 g/dL. The TBIL (6 h) was 0.024 mg/dL, the TC (6 h) was 76 mg/dL and the TG (6 h) was 89.6 mg/dL. For the same molecule, the TP (6 h) was 5.5 g/dL, the gamma-GTP (6 h) was 1 IU/L and the TERMINAL_BW (9 h) was 200.1 g. The APTT (9 h) was 19.8 s, the Bas (9 h) was 0% and the Eos (9 h) was 1%. The Fbg (9 h) was 303.6 mg/dL, the Hb (9 h) was 13.4 g/dL and the Ht (9 h) was 39%. It also gave a Lym (9 h) of 78.2%, an MCH (9 h) of 20.9 pg and an MCHC (9 h) of 34.4%. For the same molecule, the MCV (9 h) was 60.7 fL, the Mono (9 h) was 2.6% and the Neu (9 h) was 17.8%. For the same molecule, the PT (9 h) was 16.3 s, the Plat (9 h) was 115.2 x10_4/uL and the RBC (9 h) was 643 x10_4/ul. The Ret (9 h) was 7.8%, the WBC (9 h) was 92.4 x10_2/uL and the KIDNEY_L (9 h) was 0.9 g. It also gave a KIDNEY_R (9 h) of 0.9 g, a KIDNEY_TOTAL (9 h) of 1.8 g and an LIVER (9 h) of 8.3 g. The A/G (9 h) was 1.2, the ALP (9 h) was 1371.2 IU/L and the ALT (9 h) was 36 IU/L. It also gave an AST (9 h) of 70.6 IU/L, a BUN (9 h) of 12.4 mg/dL and a CRE (9 h) of 0.1 mg/dL. The Ca (9 h) was 10.6 mg/dL, the Cl (9 h) was 107.8 meq/L and the DBIL (9 h) was 0.002 mg/dL. The GLC (9 h) was 181.6 mg/dL, the IP (9 h) was 9.8 mg/dL and the K (9 h) was 4.5 meq/L. For the same molecule, the LDH (9 h) was 253.4 IU/L, the Na (9 h) was 141.6 meq/L and the PL (9 h) was 134.4 mg/dL. It also gave an RALB (9 h) of 2.9 g/dL, a TBIL (9 h) of 0.012 mg/dL and a TC (9 h) of 69.8 mg/dL. For the same molecule, the TG (9 h) was 97.8 mg/dL, the TP (9 h) was 5.4 g/dL and the gamma-GTP (9 h) was 1 IU/L. It also gave a TERMINAL_BW (24 h) of 217.8 g, an APTT (24 h) of 21.2 s and a Bas (24 h) of 0%. The Eos (24 h) was 1%, the Fbg (24 h) was 292 mg/dL and the Hb (24 h) was 13.6 g/dL. The Ht (24 h) was 39.7%, the Lym (24 h) was 80.8% and the MCH (24 h) was 21.3 pg. It also gave an MCHC (24 h) of 34.2%, an MCV (24 h) of 62.4 fL and a Mono (24 h) of 3%. For the same molecule, the Neu (24 h) was 14.4%, the PT (24 h) was 16.2 s and the Plat (24 h) was 113.1 x10_4/uL. For the same molecule, the RBC (24 h) was 636.6 x10_4/ul, the Ret (24 h) was 7.5% and the WBC (24 h) was 92.6 x10_2/uL. For the same molecule, the KIDNEY_L (24 h) was 1 g, the KIDNEY_R (24 h) was 1 g and the KIDNEY_TOTAL (24 h) was 1.9 g. The LIVER (24 h) was 10 g, the A/G (24 h) was 1.3 and the ALP (24 h) was 1864.4 IU/L. For the same molecule, the ALT (24 h) was 46.8 IU/L, the AST (24 h) was 80 IU/L and the BUN (24 h) was 15.6 mg/dL. For the same molecule, the CRE (24 h) was 0.1 mg/dL, the Ca (24 h) was 10.8 mg/dL and the Cl (24 h) was 107.8 meq/L. It also gave a DBIL (24 h) of 0.002 mg/dL, a GLC (24 h) of 197.4 mg/dL and an IP (24 h) of 7.2 mg/dL. It also gave a K (24 h) of 4.1 meq/L, an LDH (24 h) of 293.2 IU/L and a Na (24 h) of 141.6 meq/L. For the same molecule, the PL (24 h) was 146.8 mg/dL, the RALB (24 h) was 3.1 g/dL and the TBIL (24 h) was 0.032 mg/dL. The TC (24 h) was 74.4 mg/dL, the TG (24 h) was 107 mg/dL and the TP (24 h) was 5.5 g/dL. It also gave a gamma-GTP (24 h) of 1 IU/L.
